In the supplement of paper PMC10307832:

What was measured:
Experiment in all cases: relative viability (nuclei count vs DMSO), 5 days (fraction); higher = more cells survive
Ibrutinib + Decitabine = compound: C=CC(=O)N1CCC[C@@H](n2nc(-c3ccc(Oc4ccccc4)cc3)c3c(N)ncnc32)C1 [Ibrutinib] + Nc1ncn([C@H]2C[C@H](O)[C@@H](CO)O2)c(=O)n1 [Decitabine] (partner 2 µM)
Summary of the method: (§1)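 Relative viability divides the nuclei count in treated wells by that in vehicle wells. Lung cancer cell lines were seeded in 1536-well plates, dosed by pin tool the next day, and fixed and stained after 5 days in one step with final 0.05% Triton X-100, 1% formaldehyde and 1 ug/ml Hoechst. Dosing was a single drug or a fixed anchor-drug dose plus five library-drug doses (not always all listed) in √10 steps, and values are medians of duplicate plates imaged at 4×.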

BMX-IN-1 + Trametinib = compound: C=CC(=O)Nc1cc(-n2c(=O)ccc3cnc4ccc(-c5ccc(NS(C)(=O)=O)cc5)cc4c32)ccc1C [BMX-IN-1] + CC(=O)Nc1cccc(-n2c(=O)n(C3CC3)c(=O)c3c(Nc4ccc(I)cc4F)n(C)c(=O)c(C)c32)c1 [Trametinib] (partner 0.02 µM)
Summary of the method: as §1

Ibrutinib + Linsitinib = compound: C=CC(=O)N1CCC[C@@H](n2nc(-c3ccc(Oc4ccccc4)cc3)c3c(N)ncnc32)C1 [Ibrutinib] + C[C@]1(O)C[C@@H](c2nc(-c3ccc4ccc(-c5ccccc5)nc4c3)c3c(N)nccn32)C1 [Linsitinib] (partner 1 µM)
Summary of the method: as §1

PAC-1 + Lapatinib = compound: C=CCc1cccc(/C=N/NC(=O)CN2CCN(Cc3ccccc3)CC2)c1O [PAC-1] + CS(=O)(=O)CCNCc1ccc(-c2ccc3ncnc(Nc4ccc(OCc5cccc(F)c5)c(Cl)c4)c3c2)o1 [Lapatinib] (partner 2 µM)
Summary of the method: as §1

PC-3 [JPC-3]
relative viability (Ibrutinib + Decitabine; first compound 0.005 µM): 0.707
relative viability (Ibrutinib + Decitabine; first compound 0.01581 µM): 0.762
relative viability (Ibrutinib + Decitabine; first compound 0.05 µM): 0.707
relative viability (Ibrutinib + Decitabine; first compound 0.1581 µM): 0.837
relative viability (Ibrutinib + Decitabine; first compound 0.5 µM): 0.542
relative viability (BMX-IN-1 + Trametinib; first compound 0.02 µM): 0.697
relative viability (BMX-IN-1 + Trametinib; first compound 0.2 µM): 0.712
relative viability (BMX-IN-1 + Trametinib; first compound 0.6325 µM): 0.738
relative viability (BMX-IN-1 + Trametinib; first compound 2 µM): 0.677
relative viability (Ibrutinib + Linsitinib; first compound 0.005 µM): 0.917
relative viability (Ibrutinib + Linsitinib; first compound 0.01581 µM): 0.93
relative viability (Ibrutinib + Linsitinib; first compound 0.05 µM): 0.956
relative viability (Ibrutinib + Linsitinib; first compound 0.1581 µM): 0.955
relative viability (Ibrutinib + Linsitinib; first compound 0.5 µM): 0.619
relative viability (PAC-1 + Lapatinib; first compound 0.02 µM): 0.416
relative viability (PAC-1 + Lapatinib; first compound 0.06325 µM): 0.474
relative viability (PAC-1 + Lapatinib; first compound 0.2 µM): 0.447
relative viability (PAC-1 + Lapatinib; first compound 2 µM): 0.465

NCI-H596
relative viability (Ibrutinib + Decitabine; first compound 0.005 µM): 1.12
relative viability (Ibrutinib + Decitabine; first compound 0.01581 µM): 1.1
relative viability (Ibrutinib + Decitabine; first compound 0.05 µM): 1.88
relative viability (Ibrutinib + Decitabine; first compound 0.1581 µM): 0.936
relative viability (Ibrutinib + Decitabine; first compound 0.5 µM): 0.942
relative viability (BMX-IN-1 + Trametinib; first compound 0.02 µM): 0.718
relative viability (BMX-IN-1 + Trametinib; first compound 0.2 µM): 0.912
relative viability (BMX-IN-1 + Trametinib; first compound 0.6325 µM): 0.652
relative viability (BMX-IN-1 + Trametinib; first compound 2 µM): 0.825
relative viability (Ibrutinib + Linsitinib; first compound 0.005 µM): 1.13
relative viability (Ibrutinib + Linsitinib; first compound 0.01581 µM): 0.946
relative viability (Ibrutinib + Linsitinib; first compound 0.05 µM): 0.99
relative viability (Ibrutinib + Linsitinib; first compound 0.1581 µM): 0.996
relative viability (Ibrutinib + Linsitinib; first compound 0.5 µM): 0.841
relative viability (PAC-1 + Lapatinib; first compound 0.02 µM): 1.04
relative viability (PAC-1 + Lapatinib; first compound 0.06325 µM): 1.03
relative viability (PAC-1 + Lapatinib; first compound 0.2 µM): 1.01
relative viability (PAC-1 + Lapatinib; first compound 2 µM): 1.05

NCI-H838
relative viability (Ibrutinib + Decitabine; first compound 0.005 µM): 0.552
relative viability (Ibrutinib + Decitabine; first compound 0.01581 µM): 0.466
relative viability (Ibrutinib + Decitabine; first compound 0.05 µM): 0.497
relative viability (Ibrutinib + Decitabine; first compound 0.1581 µM): 0.476
relative viability (Ibrutinib + Decitabine; first compound 0.5 µM): 0.451
relative viability (BMX-IN-1 + Trametinib; first compound 0.02 µM): 0.605
relative viability (BMX-IN-1 + Trametinib; first compound 0.2 µM): 0.518
relative viability (BMX-IN-1 + Trametinib; first compound 0.6325 µM): 0.562
relative viability (BMX-IN-1 + Trametinib; first compound 2 µM): 0.568
relative viability (Ibrutinib + Linsitinib; first compound 0.005 µM): 1.02
relative viability (Ibrutinib + Linsitinib; first compound 0.01581 µM): 1
relative viability (Ibrutinib + Linsitinib; first compound 0.05 µM): 0.983
relative viability (Ibrutinib + Linsitinib; first compound 0.1581 µM): 1.08
relative viability (Ibrutinib + Linsitinib; first compound 0.5 µM): 1.01
relative viability (PAC-1 + Lapatinib; first compound 0.02 µM): 0.931
relative viability (PAC-1 + Lapatinib; first compound 0.06325 µM): 0.968
relative viability (PAC-1 + Lapatinib; first compound 0.2 µM): 0.83
relative viability (PAC-1 + Lapatinib; first compound 2 µM): 1.01

NCI-H358
relative viability (Ibrutinib + Decitabine; first compound 0.005 µM): 0.176
relative viability (Ibrutinib + Decitabine; first compound 0.01581 µM): 0.204
relative viability (Ibrutinib + Decitabine; first compound 0.1581 µM): 0.232
relative viability (Ibrutinib + Decitabine; first compound 0.5 µM): 0.136
relative viability (BMX-IN-1 + Trametinib; first compound 0.02 µM): 0.119
relative viability (BMX-IN-1 + Trametinib; first compound 0.2 µM): 0.124
relative viability (BMX-IN-1 + Trametinib; first compound 0.6325 µM): 0.127
relative viability (BMX-IN-1 + Trametinib; first compound 2 µM): 0.123
relative viability (Ibrutinib + Linsitinib; first compound 0.005 µM): 0.563
relative viability (Ibrutinib + Linsitinib; first compound 0.01581 µM): 0.394
relative viability (Ibrutinib + Linsitinib; first compound 0.05 µM): 0.355
relative viability (Ibrutinib + Linsitinib; first compound 0.1581 µM): 0.743
relative viability (Ibrutinib + Linsitinib; first compound 0.5 µM): 0.28
relative viability (PAC-1 + Lapatinib; first compound 0.02 µM): 0.473
relative viability (PAC-1 + Lapatinib; first compound 0.06325 µM): 0.525
relative viability (PAC-1 + Lapatinib; first compound 0.2 µM): 0.477
relative viability (PAC-1 + Lapatinib; first compound 2 µM): 0.388

NCI-H647
relative viability (Ibrutinib + Decitabine; first compound 0.005 µM): 0.341
relative viability (Ibrutinib + Decitabine; first compound 0.01581 µM): 0.331
relative viability (Ibrutinib + Decitabine; first compound 0.05 µM): 0.411
relative viability (Ibrutinib + Decitabine; first compound 0.1581 µM): 0.244
relative viability (Ibrutinib + Decitabine; first compound 0.5 µM): 0.409
relative viability (BMX-IN-1 + Trametinib; first compound 0.02 µM): 0.702
relative viability (BMX-IN-1 + Trametinib; first compound 0.2 µM): 0.563
relative viability (BMX-IN-1 + Trametinib; first compound 0.6325 µM): 0.467
relative viability (BMX-IN-1 + Trametinib; first compound 2 µM): 0.474
relative viability (Ibrutinib + Linsitinib; first compound 0.005 µM): 1.05
relative viability (Ibrutinib + Linsitinib; first compound 0.01581 µM): 0.995
relative viability (Ibrutinib + Linsitinib; first compound 0.05 µM): 1.15
relative viability (Ibrutinib + Linsitinib; first compound 0.1581 µM): 1.14
relative viability (Ibrutinib + Linsitinib; first compound 0.5 µM): 1.1
relative viability (PAC-1 + Lapatinib; first compound 0.02 µM): 0.851
relative viability (PAC-1 + Lapatinib; first compound 0.06325 µM): 1.05
relative viability (PAC-1 + Lapatinib; first compound 0.2 µM): 0.866
relative viability (PAC-1 + Lapatinib; first compound 2 µM): 0.934

HCC-366
relative viability (Ibrutinib + Decitabine; first compound 0.005 µM): 0.422
relative viability (Ibrutinib + Decitabine; first compound 0.01581 µM): 0.305
relative viability (Ibrutinib + Decitabine; first compound 0.05 µM): 0.314
relative viability (Ibrutinib + Decitabine; first compound 0.1581 µM): 0.346
relative viability (Ibrutinib + Decitabine; first compound 0.5 µM): 0.326
relative viability (BMX-IN-1 + Trametinib; first compound 0.02 µM): 0.36
relative viability (BMX-IN-1 + Trametinib; first compound 0.2 µM): 0.352
relative viability (BMX-IN-1 + Trametinib; first compound 0.6325 µM): 0.376
relative viability (BMX-IN-1 + Trametinib; first compound 2 µM): 0.361
relative viability (Ibrutinib + Linsitinib; first compound 0.005 µM): 0.634
relative viability (Ibrutinib + Linsitinib; first compound 0.01581 µM): 0.614
relative viability (Ibrutinib + Linsitinib; first compound 0.05 µM): 0.662
relative viability (Ibrutinib + Linsitinib; first compound 0.1581 µM): 0.51
relative viability (Ibrutinib + Linsitinib; first compound 0.5 µM): 0.614
relative viability (PAC-1 + Lapatinib; first compound 0.02 µM): 1.07
relative viability (PAC-1 + Lapatinib; first compound 0.06325 µM): 1.03
relative viability (PAC-1 + Lapatinib; first compound 0.2 µM): 1.06
relative viability (PAC-1 + Lapatinib; first compound 2 µM): 0.976
